The subject of assay [1] is formalin-induced hind paw licking and biting. In words: Rat paw formalin test. The format is in vivo. As to conditions: for effect on the early phase of the formalin response / minimum effective dose (MED), block of licking/biting behavior during the late phase of the formalin response: s.c. 1 hour before formalin; for effect on the early phase of the formalin response: early phase (0-10 minutes), any of the doses tested; for minimum effective dose (MED), block of licking/biting behavior during the late phase of the formalin response: late phase (10-45 minutes). The procedure: Test compounds were administered s.c. 1 hour before an intraplantar injection of 50 μL formalin. The time spent licking/biting the injected paw during the early and late phases was scored.
Male Sprague-Dawley rats (70-90 g) were habituated to perspex observation chambers (24 cm×24 cm×24 cm) for at least 15 minutes prior to testing. Formalin-induced hind paw licking and biting was initiated by a 50 μL subcutaneous injection of a 5% formalin solution (5% formaldehyde in isotonic saline) into the plantar surface of the left hind paw. Immediately following the formalin injection, licking/biting of the injected hind paw was scored in 5 minute bins for 60 minutes. The results are expressed as mean combined licking/biting time for the early phase (0-10 minutes) and late phase (10-45 minutes).

The test system of assay [2] is thermal hyperalgesia after incision of the rat plantaris muscle. The assay is described as follows: Thermal hyperalgesia in the rat postoperative pain model (rat plantar test). The format is in vivo. As to conditions: for MED, block of development of thermal hyperalgesia: single dose s.c. before surgery (1 hour; morphine 0.5 hour). Here is the method:
Gabapentin or S-(+)-3 isobutylgaba was administered 1 hour before surgery. Morphine was administered 0.5 hour before surgery. Thermal paw withdrawal latencies (PWL) were determined for both ipsilateral and contralateral paws using the rat plantar test. For clarity contralateral paw data for drug-treated animals is not shown. Baseline (BL) measurements were taken before surgery and PWL were reassessed 2, 24, 48, and 72 hours postsurgery. […] In the figure, —●— is vehicle contralateral, —◯— is vehicle ispsilateral, —Δ— is 1 mg/kg morphine, —▭— is 3, and —⋄— is 6 for morphine in 4a. In 4b, —Δ— is 3, —▭— is 10, and —⋄— is 30 for gabapentin. In 4c, —Δ— is 3 mg/kg, —▭— is 10, and —⋄— is 30 for S-(+)-isobutylgaba.
(§1) S-(+)-3-Isobutylgaba (S-(+)-IBG) was administered 1 hour after surgery. Thermal paw withdrawal latencies, determined using the rat plantar test, and paw withdrawal thresholds to von Frey hair filaments, were determined in separate groups of animals for both ipsilateral and contralateral paws. For clarity only the ipsilateral paw data is shown. Baseline (BL) measurements were taken before surgery and withdrawal thresholds were reassessed up to 6 hours postsurgery.
(§2) Male Sprague-Dawley rats (250-300 g), obtained from Bantin and Kingmen, (Hull, U. K.) were used in all experiments. Before surgery, animals were housed in groups of 6 under a 12-hour light/dark cycle (lights on at 07 hour 00 minute) with food and water ad libitum. Postoperatively, animals were housed in pairs on “Aqua-sorb” bedding consisting of air laid cellulose (Beta Medical and Scientific, Sale, U.K.) under the same conditions. All experiments were carried out by an observer blind to drug treatments.
(§3) Animals were anaesthetized with 2% isofluorane and 1.4 […] mixture which was maintained during surgery via a nose cone. The plantar surface of the right hind paw was prepared with 50% ethanol, and a 1-cm longitudinal incision was made through skin and fascia, starting 0.5 cm from the edge of the heel and extending towards the toes. The plantaris muscle was elevated using forceps and incised longitudinally. The wound was closed using two simple sutures of braided silk with a FST-02 needle. The wound site was covered with Terramycin spray and Auromycin powder. […] The sutures were removed after 48 hours.
Thermal hyperalgesia was assessed using the rat plantar test (Ugo Basile, Italy) following a modified method of Hargreaves, et al., 1988. Rats were habituated to the apparatus which consisted of three individual perspex boxes on an elevated glass table. A mobile radiant heat source was located under the table and focused onto the hind paw and paw withdrawal latencies (PWL) were recorded. There was an automatic cut off point of 22.5 seconds to prevent tissue damage. PWLs were taken 2 to 3 times for both hind paws of each animal, the mean of which represented baselines for right and left hind paws. The apparatus was calibrated to give a PWL of approximately 10 seconds. PWL(s) were reassessed following the same protocol as above 2, 24, 48, and 72 hours postoperatively.
(§4) Data obtained for thermal hyperalgesia was subjected to a one-way (analysis of variance) ANOVA followed by a Dunnett's t-test. Tactile allodynia results obtained with the von Frey hairs were subjected to an individual Mann Whitney t-test.

Assay [3] deals with carrageenin-induced mechanical hyperalgesia. The assay is described as follows: Carrageenin-induced mechanical hyperalgesia (rat paw pressure test). In kind it is in vivo. As to conditions: for MED, antagonism of carrageenin-induced mechanical hyperalgesia: s.c. 3.5 hours after carrageenin. The procedure: Nociceptive pressure thresholds were measured in the rat using the paw pressure test. Baseline (BL) measurements were taken before animals were administered with 100 μL of 2% carrageenin by intraplantar injection. Results are shown as mean (±SEM) of 8 animals per group.
(§5) On the test Day, 2 to 3 baseline measurements were taken before rats (male Sprague-Dawley 70-90 g) were administered with 100 μL of 2% carrageenin by intraplantar injection into the right hind paw. Animals were dosed with the test drug after development of peak hyperalgesia. Separate groups of animals were used for the mechanical and thermal hyperalgesia studies.
Nociceptive pressure thresholds were measured in the rat paw pressure test using an analgesimeter (Ugo Basile). A cut-off point of 250 g was used to prevent any damage to the paw. The intraplantar injection of carrageenin produced a reduction in the nociceptive pressure threshold between 3 and 5 hours after injection, indicating induction of hyperalgesia. […] Gabapentin (3-300 mg/kg, s.c.) and CI-1008 (1-100 mg/kg, s.c.) dose-dependently antagonized the hyperalgesia, with respective MED of 10 and 3 mg/kg (FIG. 2).

The subject of assay [4] is tactile allodynia after incision of the rat plantaris muscle. In words: Tactile allodynia in the rat postoperative pain model (von Frey hairs). The format is in vivo. As to conditions: for effect on tactile allodynia scores in the contralateral paw: up to the highest dose tested; for MED, prevention of development of tactile allodynia: s.c. 1 hour before surgery. The procedure:
Gabapentin or S-(+)-3-isobutylgaba was administered 1 hour before surgery. Morphine was administered 0.5 hour before surgery. Paw withdrawal thresholds to von Frey hair filaments were determined for both ipsilateral and contralateral paws. For clarity, contralateral paw data for drug-treated animals is not shown. Baseline (BL) measurements were taken before surgery, and withdrawal thresholds were reassessed 3, 25, 49, and 73 hours postsurgery. […] In FIG. 5, —●— is vehicle contralateral, —◯— is vehicle ispsilateral. For morphine (5a), —Δ— is 1 mg/kg, —▭— is 3, and —⋄— is 16.
as §1, §2, §3
Tactile allodynia was measured using Semmes-Weinstein von Frey hairs (Stoelting, Ill., U.S.A.). Animals were placed into wire-mesh-bottom cages allowing access to the underside of their paws. The animals were habituated to this environment prior to the start of the experiment. Tactile allodynia was tested by touching the plantar surface of the animals hind paw with von Frey hairs in ascending order of force (0.7, 1.2, 1.5, 2, 3.6, 5.5, 8.5, 11.8, 15. 1, and 29 g) until a paw withdrawal response was elicited. Each von Frey hair was applied to the paw for 6 seconds, or until a response occurred. Once a withdrawal response was established, the paw was retested, starting with the next descending von Frey hair until no response occurred. The highest force of 29 g lifted the paw as well as eliciting a response, thus represented the cut-off point. Each animal had both hind paws tested in this manner. The lowest amount of force required to elicit a response was recorded as withdrawal threshold in grams. When compounds were administered before surgery, the same animals were used to study drug effects on tactile, allodynia, and thermal hyperalgasia, with each animal being tested for tactile allodynia 1 hour after thermal hyperalgesia. Separate groups of animals were used for examination of tactile allodynia and thermal hyperalgesia when S-(+)-3-isobutylgaba was administered after surgery.
as §4

Assay [5] deals with carrageenin-induced thermal hyperalgesia. The assay is described as follows: Carrageenin-induced thermal hyperalgesia (Hargreaves model). The format is in vivo, rat. As to conditions: s.c. 2.5 hours after carrageenin; PWL at 3 and 4 hours. The procedure: Nociceptive thermal thresholds were measured in the rat using the Hargreaves apparatus. Baseline (BL) measurements were taken before animal s were administered with 100 μL of 2% carrageenin by intraplantar injection. Results are shown as mean (±SEM) of 8 animals per group.
as §5
Baseline paw withdrawal latencies (PWL) were obtained for each rat using the Hargreaves model. Carrageenin was injected as described above. Animals were then tested for thermal hyperalgesia at 2 hours postcarrageenin administration. Gabapentin (10-100 mg/kg) or CI-1008 (1-30 mg/kg) was administered s.c. 2.5 hours after carrageenin, and PWL were reevaluated at 3 and 4 hours postcarrageenin administration. Carrageenin induced a significant reduction in paw withdrawal latency at 2, 3, and 4 hours following injection, indicating the induction of thermal hyperalgesia (FIG. 3). Gabapentin and CI-1008 dose-dependently antagonized the hyperalgesia with a MED of 30 and 3 mg/kg (FIG. 3).

Where [6] appears, read: 30 mg/kg s.c. 1 hour before surgery.
Setting [7] is: 30 mg/kg, 1 hour before surgery.

SMILES strings stand for the structures.

`CC(C)C[C@H](CN)CC(=O)O` [CI-1008, (S)-3-(aminomethyl)-5-methylhexanoic acid]: in assay [1], the “effect on the early phase of the formalin response” value is given as “neither of the compounds affected the early phase” and the “minimum effective dose (MED), block of licking/biting behavior during the late phase of the formalin response” value is 10 mg/kg. Further, the “duration of effect on thermal hyperalgesia” value in assay [2] (setting [6]) is on record as “up to 3 days”. The “effect on PWL of the contralateral paw in the thermal hyperalgesia test” value (from here on “effect on PWL of the contralateral paw”) in assay [2] (up to the highest dose tested) is listed as “did not affect PWL”. The “MED, block of development of thermal hyperalgesia” value (“MED, block” for short) in assay [2] is given as 3 mg/kg. For the same compound, in assay [2] (summary statement), the “block of induction and maintenance of hyperalgesia” value is “completely blocked”. For the same compound, the “MED, antagonism of carrageenin-induced mechanical hyperalgesia” value in assay [3] came to 3 mg/kg. In addition, in assay [4] (setting [7]), the “duration of blockade of the allodynia response” value is listed as 3 days. Besides, in assay [4], the “effect on tactile allodynia scores in the contralateral paw” value is reported as “did not affect” and the “MED, prevention of development of tactile allodynia” value is on record as 10 mg/kg. Besides, in assay [4] (summary statement), the “block of induction and maintenance of allodynia” value is “completely blocked”. For the same compound, the “MED, antagonism of carrageenin-induced thermal hyperalgesia” value in assay [5] is given as 3 mg/kg.

With `CN1CC[C@]23c4c5ccc(O)c4O[C@H]2[C@@H](O)C=C[C@H]3[C@H]1C5` [Morphine], the “effect on PWL of the contralateral paw” value in assay [2] (6 mg, s.c., data not shown) was “increased PWL of the contralateral paw”. In addition, the “duration of antagonism of development of thermal hyperalgesia” value in assay [2] (1-6 mg/kg s.c. 0.5 hour before surgery) worked out at 24 h. In addition, the “MED, block” value in assay [2] is 1 mg/kg. Besides, the “effect on carrageenin-induced mechanical hyperalgesia” value in assay [3] (3 mg/kg, s.c.) is “complete blockade of hyperalgesia”. Besides, the “duration of prevention of development of tactile allodynia” value in assay [4] (highest dose of 6 mg/kg, 0.5 hour before surgery) was found to be 3 h.

Turning to `NCC1(CC(=O)O)CCCCC1` [Gabapentin, 1-(aminomethyl)-cyclohexaneacetic acid], in assay [1], the “effect on the early phase of the formalin response” value is listed as “neither of the compounds affected the early phase” and the “minimum effective dose (MED), block of licking/biting behavior during the late phase of the formalin response” value came to 30 mg/kg. Further, the “duration of prevention of the hyperalgesic response” value in assay [2] (setting [6]) was 24 h. The “effect on PWL of the contralateral paw” value in assay [2] (up to the highest dose tested) is given as “did not affect PWL”. Besides, in assay [2], the “MED, block” value was 30 mg/kg. Besides, the “MED, antagonism of carrageenin-induced mechanical hyperalgesia” value in assay [3] is listed as 10 mg/kg. Besides, in assay [4] (10 mg/kg, 1 hour before surgery), the “duration of effect on tactile allodynia” value was found to be 25 h. Further, the “duration of effect on tactile allodynia” value in assay [4] (setting [7]) stood at 49 h. Moreover, in assay [4], the “effect on tactile allodynia scores in the contralateral paw” value is recorded as “did not affect” and the “MED, prevention of development of tactile allodynia” value is 10 mg/kg. Also, in assay [5], the “MED, antagonism of carrageenin-induced thermal hyperalgesia” value is recorded as 30 mg/kg.

Take `CC(C)CC(CN)CC(=O)O` (centres unmarked) [3-aminomethyl-5-methyl-hexanoic acid, 3-aminomethyl-5-methylhexanoic acid]: the “blockade of the late phase of the formalin response” value in assay [1] (100 mg/kg s.c. 1 hour before formalin) was “only a modest blockade”.
